The text below walks through data of US20170173114A1, “METHODS AND COMPOSITIONS FOR INDUCTION OF UCP1 EXPRESSION” (Joslin Diabetes Center, Inc., priority 2014, published 2017).

For one assay, the system named is LDHA, PDK1, PKM2. Kind of assay: LDHA, PDK1 and PKM2 mRNA expression in WT-1 cells. It is filed as cell-based, murine. The note with it: WT-1, 24 hours; vs vehicle. On the procedure:
(§1) To test the role of specific prostaglandins (PGs) in activating UCP1 expression, WT-1 brown adipocytes were pretreated with PGE2, PGI2 and FGF6 for 24 hours. mRNA expression levels of UCP1, PTGS2, LDHA, PDK1 and PKM2 were then measured.

A further assay concerns PTGS2 (COX2). Kind of assay: PTGS2 mRNA / COX2 protein expression in WT-1 brown preadipocytes. Format: cell-based, murine. The note with it: WT-1, 24 hours; vs vehicle. On the procedure:
Total RNA was isolated with QIAzol lysis reagent (Qiagen, Valencia, Calif.) and purified by RNeasy Mini columns (Qiagen) following the manufacture's instructions. cDNA was prepared from total RNA using the Advantage RT-PCR kit (BD Biosciences, Palo Alto, Calif.) according to manufacturer's instructions. Diluted cDNA was used in a PCR reaction with SYBR Green Master Mix (Applied Biosystems, Foster City, Calif.) and primers specifically designed for detection of the gene of interest. PCR reactions were run in duplicate for each sample and quantitated in the ABI Sequence Detection System (Applied Biosystems). Data were expressed as arbitrary units after normalization to levels of expression of internal controls for each sample. Sequences of primers for specific genes are each obtained from the published literature or designed using publically available gene sequence databases. Unless otherwise indicated, gene expression data described in the examples below was obtained using QPCR.
Cells were harvested in lysis buffer (50 mM HEPES, 137 mM NaCl, 1 mM MgCl2, 1 mM CaCl2, 10 mM Na2P2O7, 10 mM NaF, 2 mM EDTA, 10% glycerol, 1% Igepal CA-630, 2 mM vanadate, 10 μg/ml of leupeptin, 10 μg/ml of aprotinin, 2 mM phenylmethylsulfonyl fluoride; pH 7.4). After lysis, lysates were clarified by centrifugation at 12,000×g for 20 min at 4° C., the amount of protein in the supernatants was determined by the Bradford Protein Assay (Bio-Rad Laboratories, Hercules, Calif.). Proteins were directly solubilized in Laemmli sample buffer. Equal amounts of lysates were separated by sodium dodecyl sulfate-polyacrylamide gel electrophoresis and transferred to Immobolin-P membranes. […] Specifically bound primary antibodies were detected with peroxidase-coupled secondary antibody and enhanced chemiluminescence (ECL, Amersham Biosciences, Piscataway, N.J.).
To determine if FGF4, FGF5, FGF6, FGF10, FGF16, FGF17, FGF18 or FGF20 induced either UCP1 mRNA or PTGS2 mRNA expression, murine brown preadipocyte WT-1 cells (Tseng et al., Nat. Cell. Biol. (2005) 7(6):601-611) were grown in growth media (DMEM-high glucose+10% FBS) supplemented with FGF4, FGF5, FGF6, FGF10, FGF16, FGF17, FGF18, FGF20 or buffer (control) in combination with insulin (20 nM) and triidothyronine (T3, 1 nM) for three days. All FGFs were used at a dosage of 200 ng/mL. mRNA was isolated and UCP1 and PTGS2 gene expression levels were evaluated by quantitative reverse transcription polymerase chain reaction (Q-RT-PCR) analysis. […]
as §1

Regarding `CCCCC[C@H](O)/C=C/[C@H]1[C@H](O)CC(=O)[C@@H]1C/C=C\CCCC(=O)O` [PGE2, reference compound], in the assay on LDHA, PDK1, PKM2, the “LDHA mRNA expression” value is given as “increase”, the “PDK1 mRNA expression” value is “increase” and the “PKM2 mRNA expression” value is given as “increase”. In the assay on PTGS2 (COX2), the “PTGS2 mRNA expression” value was “significantly induced”.

As to `CCCCC[C@H](O)/C=C/[C@@H]1[C@H]2C/C(=C/CCCC(=O)O)O[C@H]2C[C@H]1O` [PGI2, reference compound], in the assay on LDHA, PDK1, PKM2, the “LDHA mRNA expression” value is listed as “increase”, the “PDK1 mRNA expression” value is on record as “increase” and the “PKM2 mRNA expression” value was “increase”. Further, the “PTGS2 mRNA expression” value in the assay with PTGS2 (COX2) is “significantly induced”.
